How the values were obtained:
HMOX1 gene = experiment: HMOX1 mRNA expression in HepG2 cells (Nanostring); assay type: cell-based, human; conditions: 24 hours treatment
Protocol: Example 147. HMOX1 Inducers of the Invention Strongly Increase In Vitro Expression of HMOX1
(§1) RNA Isolation and Quantification of Gene Expression
(§2) HepG2 cells were seeded at 250 k/well in 12-well tissue culture plates coated with collagen (collagen I, rat tail (thin plate coating); ENZO Life Sciences) for approximately 24 hours. The seeded cells were then treated with dose titration of the compound of Example 17 or dimethyl fumarate (DMF) (a Nrf2 activator; Fisher Scientific) via media change, with biological triplicates performed for each treatment. After approximately 24 hours of treatment, cells were visually inspected to confirm that no toxicity occurred with compound treatment. The treated cells were washed with PBS, aspirated, parafilmed and frozen at −80° C. prior to RNA isolation. RNA was isolated using Machery-Nagel isolation kit (NucleoSpin® RNA: catalog 740955.250) and then quantitated using ThermoFisher Nanodrop.
RNA was diluted for Nanostring gene expression analysis. […]
The relative mRNA levels of the HMOX1 gene in HepG2 cells treated with the compound of Example 17 or DMF were measured according to the methods described above. […]

FTH1 = FTH1 mRNA expression in HepG2 cells (Nanostring); assay type: cell-based, human; conditions: 24 hours treatment
Protocol: as §1, §2
RNA was diluted for Nanostring gene expression analysis. The diluted RNA at an input of 200ng RNA was run on a Nanostring instrument, which was supported with nCounter® SPRINT Profiler System and nSolver4.0 Software, nCounter® SPRINT Cartridge, nCounter® SPRINT Reagent Pack, and nCounter© SPRINT Hybridization Buffer. Analysis was done manually using raw data obtained from nSolver4.0 Software. CLTC, POLR2A, RPL27 and TBP were used as reference genes for normalization. Data was graphed as fold change compared to DMSO treatment. […]

Heme Oxygenase 1 (HO1) = experiment: PD study, HMOX1 protein levels in mouse plasma and liver (ELISA); assay type: in vivo; conditions: HMOX1 protein fold induction vs time-matched vehicle, 50 mpk oral
Protocol: 9-10 week old male C57BL/6 mice were dosed orally with 50 mg/kg of vehicle or compound formulated in 5% w/v tween 80 and 0.5% methyl cellulose. At indicated time points (3 and 6 hours or or 4 and 8 hours post-dosing as shown in the results below), whole blood was collected, animal was sacrificed and liver was collected. Blood samples were transferred to vials containing 4 μL of 10% w/v EDTA, centrifuged at 6000 rpm for 8 in below 10° C. to obtain plasma. Samples were frozen and later processed for HMOX1 protein levels as indicated below:
HMOX 1 Protein Levels: Mouse Liver
Preparation of Homogenization/Lysis Buffer
The homogenization buffer was prepared according Table A.
Immediately prior to use, add DTT (ThermoScientific #R0861) to a final concentration of 5 mM and 100×Halt Protease & Phosphatase Inhibitor Cocktail (ThermoScientific #78440) to a final concentration of 1×.
Preparation of Mouse Liver Samples
Liver samples were crushed by mortar and pestle under freezing conditions. Pulverized tissue was transferred into pre-chilled bead ruptor OMNI tubes (OMNI International, Cat #19-628). 1 mL of homogenization buffer (+DTT and HALT) was added to pulverized tissue and tubes were placed on ice. Samples were loaded and run through bead ruptor at speed 5.64 m/s, for two 20 sec cycles with 10 sec dwell between cycles and samples were immediately returned to ice. All material was transferred to a new chilled 2 mL Eppendorf tube. Samples were centrifuged for 5 minutes at 2,000 rpm at 4° C. Supernatant was transferred to a fresh chilled 1.7 mL Eppendorf tube. Samples were centrifuged for 5 minutes at 2,000 rpm at 4° C. The supernatant, consisting of cytosol and microsomes, was transferred to a fresh chilled 1.7 mL Eppendorf tube. Samples were stored at −80° C. Microsome samples were quantitated using Pierce 660 Assay (ThermoFisher Cat #22660) with pre-diluted BSA standards (ThermoFisher Cat #23208) ranging from 125-2000 μg/mL. Each sample was diluted to 10ng/ul for an ELISA input of 0.5ug in 50ul.
Preparation of Assay Reagents
All assay reagents were provided in the Heme Oxygenase 1 (HO1) Mouse SimpleStep ELISA Kit (Abcam #ab204524). Prior to use, all reagents were equilibrated to room temperature. 1×Wash Buffer PT was prepared by diluting 10×Wash Buffer PT 1:10 with deionized water. Antibody cocktail was prepared by diluting the 10×Capture Antibody and 10×Detector Antibody to 1×in Antibody Diluent 5BI. Mouse heme oxygenase 1 protein standard was reconstituted using 500ul homogenization buffer (Table A), mixed and held at room temperature for 10 minutes prior to dilution. An eight point standard curve was generated by diluting the Stock Standard 1:2 for standard curve ranging from 10,000-156.3 pg/mL.
Heme Oxygenase 1 (HO1) Mouse SimpleStep ELISA
50ul of all samples and standards were added to appropriate wells in duplicate. 50ul of 1×Antibody Cocktail was added to each well. The plate was sealed with provided seal and incubated at room temperature on a plate shaker at 400 rpm. After one hour incubation, the Antibody Cocktail was aspirated and the wells were washed three times with 350ul 1×Wash Buffer PT, aspirating completely between each step. After the last wash was aspirated dry, 100ul TMB Substrate was added to each well and the plate was incubated in the dark at room temperature for 10 minutes on a plate shaker at 400 rpm. After the 10 minute incubation, 100ul of Stop Solution was added to each well. Plate was shaken at 400 rpm for 1 minute to mix. Softmax Pro 7.0.3 was used to read OD at 450 nm as well as for analysis.
Heme Oxygenase 1 Protein Levels in Mouse Plasma
All assay reagents were provided in the Heme Oxygenase 1 (HO1) Mouse SimpleStep ELISA Kit (Abcam #ab204524). 1×Wash Buffer PT was prepared by diluting 10×Wash Buffer PT 1:10 with deionized water. Antibody cocktail was prepared by diluting the 10×Capture Antibody and 10×Detector Antibody to 1×in Antibody Diluent 5BI. […]

With `Cn1c(Nc2nc3ccccc3o2)nc2cc(C(=O)NCCOCCO)ccc21` [Example 17, 2-(benzo[d]oxazol-2-ylamino)-N-(2-(2-hydroxyethoxy)ethyl)-1-methyl-1H-benzo[d]imidazole-5-carboxamide] the “HMOX1 expression, 30 μM compound of Example 17 relative to 250 μM DMF” value (HMOX1 gene) was 4 times, the “HMOX1 expression compared with DMF” value (HMOX1 gene; mRNA fold change vs DMSO) was “much more strongly than DMF” and the “FTH1 expression fold increase” value (FTH1) was “comparable fold increases”. The “Liver Protein (4 h)” value (Heme Oxygenase 1 (HO1); mouse liver, 4 hours (Study 702)) was 3.3x*, the “Liver Protein (8 h)” value (Heme Oxygenase 1 (HO1); mouse liver, 8 hours (Study 702)) was 3.1x* and the “Plasma Protein (4 h)” value (Heme Oxygenase 1 (HO1); mouse plasma, 4 hours (Study 702)) was 1.7x*. The “Plasma Protein (8 h)” value (Heme Oxygenase 1 (HO1); mouse plasma, 8 hours (Study 702)) was 1.1x*.

Reference: patent publication US20240051952A1, “HMOX1 INDUCERS” (Mitobridge Inc., priority 2019, published 2024)
